Measurements from patent US10155732B2, “Ribonucleotide reductase inhibitors and methods of use” (City of Hope, priority 2012, dated 2018).
Several values for one entry are separate records, joined by “and”; a condition that tells them apart may be missing. Equal entries are not always repeated. Where two headings read alike, the source gives them in different places. Blank lines part the entries; values can stand above or below the molecule they belong to.

Columns and labels:
[1] = target: recombinant RRM1/RRM2 complex (Homo sapiens (Human), UniProt P31350); test: in vitro holoenzyme-based RR assay, [3H]CDP reduction by HPLC; format: biochemical; settings: for inhibition of native RRM1/RRM2 activity in vitro screen: screen of top 80 virtual screening candidates
recombinant RRM1/RRM2 complex, sequence (P31350 whole entry, one chain of several): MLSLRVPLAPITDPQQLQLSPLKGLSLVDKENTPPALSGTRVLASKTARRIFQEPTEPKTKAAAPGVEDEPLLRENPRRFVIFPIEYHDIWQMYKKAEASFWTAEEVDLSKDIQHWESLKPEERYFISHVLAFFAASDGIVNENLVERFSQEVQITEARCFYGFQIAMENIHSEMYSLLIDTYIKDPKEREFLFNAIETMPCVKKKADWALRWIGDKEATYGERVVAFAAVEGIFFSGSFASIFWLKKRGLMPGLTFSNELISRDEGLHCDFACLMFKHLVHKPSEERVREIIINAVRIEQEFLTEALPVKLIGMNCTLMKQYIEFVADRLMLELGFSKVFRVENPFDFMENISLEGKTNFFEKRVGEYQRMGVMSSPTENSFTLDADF
From the text: Compounds that docked into the ligand binding pocket were identified using the TRIPOS FlexX docking tool and ranked using an embedded consensus docking score. […] The assay utilized recombinant RRM1/RRM2 or RRM1/RRM2 complex and measured [^3H]CDP reduction activity (i.e., CDP to dCDP) by HPLC.

[2] = test system: human leukemia MOLT-4 cells; test: MTT cytotoxicity assay; format: cell-based
Experimental: (§1) The in vitro cytotoxicity of COH4 and COH20 towards human leukemia REH and MOLT-4 cells, human prostate cancer LNCaP cells, human oropharyngeal cancer KB cells, and normal fibroblast NHDF cells was evaluated using an MTT assay. 5,000 cells were seeded on six-well plates for 72 hours with various concentrations of drug. COH20 was cytotoxic to the cancer cell lines at less than 10 μM, while causing less cytotoxicity to normal cells than 3-AP.
(§2) The in vitro cytotoxicity of COH29 towards a panel of human cancer cell lines was tested using the MTT assay described above.

[3] = test system: normal fibroblast NHDF cells; test: MTT cytotoxicity assay; format: cell-based, human; settings: 72 hours
Experimental: as §1

human leukemia REH cells = test: MTT cytotoxicity assay; format: cell-based; settings: 72 hours
Experimental: as §1

[4] = test system: human oropharyngeal cancer KB cells; test: MTT cytotoxicity assay; format: cell-based; settings: 72 hours
Experimental: as §1

[5] = test system: human prostate cancer LNCaP cells; test: MTT cytotoxicity assay; format: cell-based; settings: 72 hours
Experimental: as §1

KBMDR = test: in vitro cytotoxicity assay, multidrug resistant clone; format: cell-based, human
[6] = test system: REH, MOLT-4, LNCaP and KB cancer cell lines; test: MTT cytotoxicity assay, cancer cell lines together; format: cell-based, human
Experimental: as §1

intracellular RR = intracellular RR activity in lysates of treated KB cells; format: cell-based, human; settings: KB cells treated with 10 μM
Experimental: To confirm that the ability of COH20 to inhibit RR activity was not specific to recombinant RR, an assay was performed testing the effect of COH20 on intracellular RR. KB cells treated with 10 μM COH20 were lysed, and protein was extracted in a high salt buffer and passed through a G25 SEPHADEX® column to remove small molecules such as dNTP. The eluate was mixed with [^3H]CDP in reaction buffer to monitor RR activity. Treatment with COH20 decreased intracellular RR activity by approximately 50% (FIG. 7).

KBHURs = test: in vitro cytotoxicity assay, HU-resistant clone; format: cell-based, human; settings: overexpresses RRM2
Experimental: as §1
In vitro cytotoxicity assays were repeated using KBHURs, an HU-resistant clone derived from KB cells that overexpresses RRM2. […] Similar experiments will be repeated using the gemcitabine resistant cell line KBGem, which also overexpresses RRM2.

[7] = single-dose pharmacokinetic evaluation in rats; format: in vivo, rat
Experimental: COH20 was injected into three male rats at 1 mg/kg for single-dose pharmacokinetic evaluation. […] More detailed pharmacokinetic studies will be performed with various dosages of COH20 to establish parameters such as clearance, bioavailability, and tissue/plasma partition coefficients.
Pharmacokinetic evaluation was performed on COH29 using the same techniques, with COH29 administered at a dosage of 25 mg/kg.

Leukemia CCRF-CEM = test: MTT cytotoxicity assay; format: cell-based; settings: Homo sapiens
Experimental: as §1, §2

Leukemia SUP B15 = test: MTT cytotoxicity assay; format: cell-based; settings: Homo sapiens
Experimental: as §1, §2

Ovarian Cancer OV 90 = test: MTT cytotoxicity assay; format: cell-based; settings: Homo sapiens
Experimental: as §1, §2

[8] = test system: NCI 60 human cancer cell lines; test: MTT cytotoxicity assay, panel of human cancer cell lines; format: cell-based
Experimental: as §1, §2

[9] = Homo sapiens, MOLT-4, 72 hours, Table 3, read-out: IC50 MOLT-4
[10] = RR activity, Table 1, read-out: IC50 ± S.D.
[11] = rats, 25 mg/kg, individual analysis 1-3

Compound: O=C1C(Cl)=C(Nc2ccc(S(=O)(=O)Nc3ccccn3)cc2)C(=O)c2ccccc21 [NSC #45382]
inhibition of native RRM1/RRM2 activity in vitro screen [1]: ≥ 80%

Compound: NC(=O)NO [HU, hydroxyurea, reference compound]
IC50 ([2]; 72 hours, Table 3, read-out: IC50 MOLT-4): 165 µM | concentration exhibiting cytotoxicity towards KBMDR cells (KBMDR): > 1000 µM | IC50 [3]: > 1000 µM | IC50 (human leukemia REH cells): 32.8 µM | IC50 [4]: 300 µM | IC50 [5]: 280 µM | IC50 [1, 10]: 148 ± 7.34 µM

Compound: Cl.O=c1oc2ccccc2c(O)c1C=Nc1nc(-c2ccc(O)c(O)c2)cs1 [NSC #659390]
inhibition of native RRM1/RRM2 activity in vitro screen [1]: ≥ 80%

Compound: NC(=S)NN=Cc1ncccc1N [Compound 3-AP, 3-aminopyridine-2-carboxaldehyde thiosemicarbazone, reference compound]
IC50 [2, 9]: 1.21 µM | concentration exhibiting cytotoxicity towards KBMDR cells (KBMDR): 200 µM | IC50 ([3]; Homo sapiens, NHDF): 7.35 µM | IC50 (human leukemia REH cells; Homo sapiens, REH): 1.42 µM | IC50 ([4]; Homo sapiens, KB): 1.98 µM | IC50 ([5]; Homo sapiens, LNCaP): 1.75 µM | IC50 [1, 10]: 1.2 ± 0.13 µM

Second part, led by results:

IC50 [1, 10]: 15.3 ± 1.8 µM
Compound: O=C(Nc1nc(-c2ccc(O)c(O)c2)cs1)c1ccccc1 [COH4]
IC50 [2, 9]: 11.8 µM | IC50 ([3]; Homo sapiens, NHDF): 52.6 µM | IC50 (human leukemia REH cells; Homo sapiens, REH): 20.6 µM | IC50 ([4]; Homo sapiens, KB): 30.6 µM | IC50 ([5]; Homo sapiens, LNCaP): 23 µM

half-life ([7]; male, rat, plasma, other: injected, 1 mg/kg, three male rats, 1 mg/kg, plasma, read-out: terminal half-life (T1/2) (converted)): ~5.5 h | inhibition of the recombinant RRM1/RRM2 complex in vitro [1]: 90.2% | IC50 [1, 10]: 9.3 ± 2.3 µM | IC50 ([1]; Table 2, no added Fe, read-out: IC50 ± S.D. RRM1/RRM2): 9.31 ± 2.3 µM
Compound: O=C(Nc1nc(-c2ccc(O)c(O)c2)cs1)c1ccc(O)c(O)c1 [COH20]
IC50 [2, 9]: 5.26 µM | concentration exhibiting cytotoxicity towards KBMDR cells (KBMDR): 80 µM | cytotoxicity to KBMDR (in words) (KBMDR; overexpresses the MDR pump): at lower concentrations than 3-AP or HU | IC50 ([3]; Homo sapiens, NHDF): 82.8 µM | concentration cytotoxic / growth inhibiting to the cancer cell lines [6]: less than 10 μM | IC50 (human leukemia REH cells; Homo sapiens, REH): 2.54 µM | IC50 ([4]; Homo sapiens, KB): 9.25 µM | IC50 ([5]; Homo sapiens, LNCaP): 8.49 µM | decrease of intracellular RR activity (intracellular RR): approximately 50% | cytotoxicity to KBHURs (in words) (KBHURs): cytotoxic to KBHURs at significantly lower concentrations than the other RR inhibitors tested

AUC ([7]; rat, plasma, intravenous, 25 mg/kg, rats, 25 mg/kg, Avg. of triplicate, read-out: AUC): 3480 ng·h/mL | Cmax ([7]; rat, plasma, intravenous, 25 mg/kg, rats, 25 mg/kg, Avg. of triplicate, read-out: Cmax): 27600 ng/mL | half-life ([7]; rat, plasma, intravenous, 25 mg/kg, rats, 25 mg/kg, Avg. of triplicate, read-out: T1/2 (converted)): 2.67 h | Vd ([7]; rat, plasma, intravenous, 25 mg/kg, rats, 25 mg/kg, Avg. of triplicate, read-out: Vss): 0.804 L/kg | AUC ([7]; rat, plasma, intravenous, 25 mg/kg, rats, 25 mg/kg, individual analysis 1-3, read-out: AUC): 3670 ng·h/mL | Cmax ([7]; rat, plasma, intravenous, 25 mg/kg, rats, 25 mg/kg, individual analysis 1-3, read-out: Cmax): 31300 ng/mL | clearance ([7]; rat, plasma, intravenous, 25 mg/kg, rats, Avg. of triplicate): 122 mL/min/kg | clearance ([7]; rat, plasma, intravenous, 25 mg/kg, rats, individual analysis 1-3): 114 mL/min/kg | Tmax ([7]; rat, plasma, intravenous, rats, 25 mg/kg, individual analysis 1-3): 1.8 min | AUC [7, 11]: 2861 ng·h/mL and 3918 ng·h/mL | CL [7, 11]: 145.6 mL/min/kg and 106.4 mL/min/kg | Cmax [7, 11]: 26000 ng/mL and 25600 ng/mL | T1/2 [7, 11]: 0.4 h and 7.6 h and 0.03 h | Vss [7, 11]: 1.185 L/kg and 0.576 L/kg and 0.653 L/kg | AUC dose dependence ([7]; rats, i.v. bolus): dose-dependent manner
Compound: O=C(Nc1nc(-c2ccc(O)c(O)c2)c(-c2ccccc2)s1)c1ccc(O)c(O)c1 [COH29]
IC50 ([2]; Homo sapiens, MOLT-4, Table 4, read-out: IC50 Leukemia MOLT-4): 2.5 µM | IC50 (Leukemia CCRF-CEM): 2.8 µM | IC50 (Leukemia SUP B15): 5 µM | IC50 (Ovarian Cancer OV 90): 2.6 µM | GI50 ([8]; except HT29, UACC-257, NCI/ADR-RES, CAKI-1): < 10 µM | IC50 ([8]; except colon cancer HT29, melanoma UACC-257, ovarian cancer NCI/ADR-RES, renal cancer CAKI-1, read-out: IC50 in all cell types tested): < 10 µM
